Legend:
[1] = Pharmacokinetic study: blood plasma levels over 12 hours after administration of oxymorphone; type: in vivo
Method: (§1) In separate studies, blood plasma levels and indications of pain relief were recorded over a 12 hour period. FIGS. 1-4 show graphical representation of the data combining the two studies such that the effect of blood plasma levels on pain can be evaluated.
After this time, oxymorphone levels again drop and eventually fall to levels near the earlier plateau.

Opiate, Delta 1 = assay: Opiate Delta 1 receptor binding assay
[2] = target: T1, Opiate, Kappa (Human Recombinant) (Homo sapiens, UniProt P41145); assay: Opiate Kappa receptor binding assay
T1 construct: expressed in transfected cells

pain = assay: Pain relief (PID / categorical pain scores) compared with blood plasma levels; type: in vivo; settings: based on the pharmacokinetic studies
Method: as §1
The amount administered will be dependent upon normal criteria such as patient weight, intensity of pain, and other factors. Based on the pharmacokinetic studies blood plasma levels around at least 0.05 ng/mL will provide some analgesia. The upper plasma level limit will be ultimately established by safety concerns. […] Subsequent doses may be required to maintain these blood levels.

[3] = target: T2, Opiate, Mu (Human Recombinant) (Homo sapiens, UniProt P35372); assay: Opiate Mu receptor binding assay
T2 construct: expressed in transfected cells

[4] = target: T3, Opiate, Delta 2 (Human Recombinant) (Homo sapiens, UniProt P41143); assay: Opiate Delta 2 receptor binding assay
T3 construct: expressed in transfected cells
T3 sequence (P41143 whole entry): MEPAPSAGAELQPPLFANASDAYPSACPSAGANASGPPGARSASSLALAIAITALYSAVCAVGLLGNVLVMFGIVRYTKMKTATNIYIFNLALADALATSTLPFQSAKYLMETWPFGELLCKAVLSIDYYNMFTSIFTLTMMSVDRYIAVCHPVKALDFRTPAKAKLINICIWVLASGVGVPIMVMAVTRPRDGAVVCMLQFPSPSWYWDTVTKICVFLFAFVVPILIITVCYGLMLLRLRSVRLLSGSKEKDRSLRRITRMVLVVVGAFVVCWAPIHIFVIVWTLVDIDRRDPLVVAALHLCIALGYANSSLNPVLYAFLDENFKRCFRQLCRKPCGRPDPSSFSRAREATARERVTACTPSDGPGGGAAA

T1 sequence (P41145 whole entry): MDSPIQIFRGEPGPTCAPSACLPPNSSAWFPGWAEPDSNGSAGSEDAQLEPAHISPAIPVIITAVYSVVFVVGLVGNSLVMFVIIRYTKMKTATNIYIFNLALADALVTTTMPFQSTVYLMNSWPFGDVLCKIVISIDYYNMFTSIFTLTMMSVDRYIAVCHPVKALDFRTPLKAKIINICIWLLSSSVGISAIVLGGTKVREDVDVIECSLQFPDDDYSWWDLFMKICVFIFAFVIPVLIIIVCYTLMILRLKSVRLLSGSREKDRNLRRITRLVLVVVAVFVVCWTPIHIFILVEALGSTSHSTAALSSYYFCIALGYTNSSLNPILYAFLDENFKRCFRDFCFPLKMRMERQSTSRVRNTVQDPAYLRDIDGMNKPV
T2 sequence (P35372 whole entry): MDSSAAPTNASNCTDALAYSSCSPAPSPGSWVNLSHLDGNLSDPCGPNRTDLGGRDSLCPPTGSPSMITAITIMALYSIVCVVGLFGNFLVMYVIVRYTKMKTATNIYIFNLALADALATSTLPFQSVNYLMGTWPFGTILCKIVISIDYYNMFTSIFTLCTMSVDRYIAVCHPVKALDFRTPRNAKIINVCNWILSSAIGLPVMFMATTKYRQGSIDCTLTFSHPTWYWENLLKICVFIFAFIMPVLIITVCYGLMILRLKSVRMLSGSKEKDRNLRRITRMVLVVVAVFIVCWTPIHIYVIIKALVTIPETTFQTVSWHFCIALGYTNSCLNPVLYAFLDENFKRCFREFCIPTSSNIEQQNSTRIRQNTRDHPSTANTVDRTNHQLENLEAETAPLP

SMILES	time of second spike of blood plasma level ([1]; from administration of oxymorphone) [h]	binding, Opiate Delta 1 (Opiate, Delta 1; 10 nm (1.0 E−8)) [%]	binding, Opiate Delta 1 (Opiate, Delta 1; 10 μm (1.0 E−5)) [%]	binding, Opiate Kappa (Human Recombinant) ([2]; 10 nm (1.0 E−8)) [%]	binding, Opiate Kappa (Human Recombinant) ([2]; 10 μm (1.0 E−5)) [%]	time of peak blood plasma level ([1]; after administration of oxymorphone) [h]	blood plasma level that will provide some analgesia (pain)	binding, Opiate Mu (Human Recombinant) ([3]; 10 nm (1.0 E−8)) [%]	binding, Opiate Mu (Human Recombinant) ([3]; 10 μm (1.0 E−5)) [%]	binding, Opiate Delta 2 (Human Recombinant) ([4]; 10 nm (1.0 E−8)) [%]	binding, Opiate Delta 2 (Human Recombinant) ([4]; 10 μm (1.0 E−5)) [%]
CN1CC[C@]23c4c5ccc(O)c4O[C@H]2C(=O)CC[C@@]3(O)[C@H]1C5 [oxymorphone]	4 to 6	−18.26	89.03								
CN1CC[C@]23c4c5ccc(O)c4O[C@H]2C(O)CC[C@@]3(O)[C@H]1C5 (stereo partly shown) [6-hydroxy oxymorphone]		−4.12	90.48	2.45	62.47	≤ 2	at least 0.05 ng/mL	63.16	99.91	7.19	55.45

Reference: patent US20040214849A1, “Parenteral administration of 6-hydroxy-oxymorphone for use as an analgesic” (priority 2001, published 2004)
